SMILES strings stand for the structures.

We go through eleven compounds from patent US12448389B2, “BRM targeting compounds and associated methods of use” (Prelude Therapeutics Incorporated, priority 2020, dated 2025).

For one assay, the target named is T1, SMARCA4-HiBiT (Homo sapiens, UniProt P51532).
T1 construct: SMARCA4-HiBiT knock-in Hela monoclonal cell (CS3023226); host or cells: HeLa monoclonal knock-in line (CRISPR HiBiT knock-in at the endogenous locus, heterozygous)
As to the kind of experiment: SMARCA4 HiBiT degradation assay in HeLa cells. It is filed as cell-based. The settings on record: 18 hours incubation; for DC50: read-out: HeLa-HiBit-SM4 DC50; for Dmax: HeLa, read-out: HeLa-HiBit-SM4 Dmax (%). A digest of the protocol:
(§1)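 HeLa monoclonal lines with heterozygous HiBiT knock-in were seeded at 2500 cells/well in EMEM with 10% FBS and treated with compound for 18 h at 37 °C. Remaining tagged protein was measured by Nano-Glo HiBiT lytic luminescence after 30–60 min at RT, and values came from curve fitting.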
In general terms: HiBiT is a short tag that completes a luciferase, so light tracks the accessible tagged protein.

The next assay addresses T2, SMARCA2-HiBiT (Homo sapiens, UniProt P51531).
T2 construct: SMARCA2-HiBiT knock-in Hela monoclonal cell (CS302366); host or cells: HeLa monoclonal knock-in line (CRISPR HiBiT knock-in at the endogenous locus, heterozygous)
As to the kind of experiment: SMARCA2 HiBiT degradation assay in HeLa cells. It is filed as cell-based. Particulars: 18 hours incubation; for DC50: read-out: HeLa_HiBit-SM2 DC50; for Dmax: HeLa, read-out: HeLa-HiBit-SM2 Dmax (%). Put shortly: as §1

T1 sequence (P51532 whole entry): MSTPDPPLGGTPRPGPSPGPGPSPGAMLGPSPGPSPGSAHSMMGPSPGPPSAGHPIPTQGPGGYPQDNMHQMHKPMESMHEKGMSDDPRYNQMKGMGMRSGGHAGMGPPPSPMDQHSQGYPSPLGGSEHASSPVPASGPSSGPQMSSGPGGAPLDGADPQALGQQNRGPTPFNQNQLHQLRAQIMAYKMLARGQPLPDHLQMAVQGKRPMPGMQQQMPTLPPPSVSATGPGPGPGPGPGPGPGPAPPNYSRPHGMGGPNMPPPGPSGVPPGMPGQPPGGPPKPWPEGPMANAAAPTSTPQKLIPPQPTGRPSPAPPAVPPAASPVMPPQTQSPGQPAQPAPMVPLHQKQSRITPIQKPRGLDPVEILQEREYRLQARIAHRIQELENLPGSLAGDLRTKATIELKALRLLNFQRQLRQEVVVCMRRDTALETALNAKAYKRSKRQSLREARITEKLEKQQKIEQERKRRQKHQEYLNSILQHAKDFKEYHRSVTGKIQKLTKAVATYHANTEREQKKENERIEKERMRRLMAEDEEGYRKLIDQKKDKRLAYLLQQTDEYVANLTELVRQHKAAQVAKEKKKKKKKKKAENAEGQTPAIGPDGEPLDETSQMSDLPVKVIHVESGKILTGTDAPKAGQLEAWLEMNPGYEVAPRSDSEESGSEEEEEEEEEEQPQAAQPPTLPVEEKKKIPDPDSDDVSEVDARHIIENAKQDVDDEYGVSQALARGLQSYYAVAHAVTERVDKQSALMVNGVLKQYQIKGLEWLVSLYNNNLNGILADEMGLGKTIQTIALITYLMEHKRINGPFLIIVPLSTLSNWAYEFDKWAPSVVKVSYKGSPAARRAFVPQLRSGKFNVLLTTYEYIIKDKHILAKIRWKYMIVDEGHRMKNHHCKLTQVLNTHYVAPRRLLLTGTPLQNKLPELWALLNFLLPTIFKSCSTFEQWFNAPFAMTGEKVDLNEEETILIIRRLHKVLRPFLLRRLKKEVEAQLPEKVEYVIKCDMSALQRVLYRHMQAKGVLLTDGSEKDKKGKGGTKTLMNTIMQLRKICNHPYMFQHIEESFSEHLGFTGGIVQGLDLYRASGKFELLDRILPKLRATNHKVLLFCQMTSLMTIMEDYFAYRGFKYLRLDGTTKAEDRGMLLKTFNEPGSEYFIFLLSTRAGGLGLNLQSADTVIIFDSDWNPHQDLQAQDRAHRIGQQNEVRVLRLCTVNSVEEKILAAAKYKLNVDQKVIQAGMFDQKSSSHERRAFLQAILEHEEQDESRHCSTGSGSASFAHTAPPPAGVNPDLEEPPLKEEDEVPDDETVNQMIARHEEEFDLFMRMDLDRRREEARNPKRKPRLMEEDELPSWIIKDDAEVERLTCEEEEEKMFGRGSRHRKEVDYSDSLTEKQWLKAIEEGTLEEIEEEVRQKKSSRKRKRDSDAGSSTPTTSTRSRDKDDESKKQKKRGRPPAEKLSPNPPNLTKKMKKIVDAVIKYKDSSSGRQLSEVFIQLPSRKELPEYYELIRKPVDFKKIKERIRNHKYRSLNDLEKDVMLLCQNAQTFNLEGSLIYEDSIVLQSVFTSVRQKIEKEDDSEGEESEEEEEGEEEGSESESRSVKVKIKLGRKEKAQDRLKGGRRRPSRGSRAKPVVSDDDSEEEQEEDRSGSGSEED
T2 sequence (P51531 whole entry): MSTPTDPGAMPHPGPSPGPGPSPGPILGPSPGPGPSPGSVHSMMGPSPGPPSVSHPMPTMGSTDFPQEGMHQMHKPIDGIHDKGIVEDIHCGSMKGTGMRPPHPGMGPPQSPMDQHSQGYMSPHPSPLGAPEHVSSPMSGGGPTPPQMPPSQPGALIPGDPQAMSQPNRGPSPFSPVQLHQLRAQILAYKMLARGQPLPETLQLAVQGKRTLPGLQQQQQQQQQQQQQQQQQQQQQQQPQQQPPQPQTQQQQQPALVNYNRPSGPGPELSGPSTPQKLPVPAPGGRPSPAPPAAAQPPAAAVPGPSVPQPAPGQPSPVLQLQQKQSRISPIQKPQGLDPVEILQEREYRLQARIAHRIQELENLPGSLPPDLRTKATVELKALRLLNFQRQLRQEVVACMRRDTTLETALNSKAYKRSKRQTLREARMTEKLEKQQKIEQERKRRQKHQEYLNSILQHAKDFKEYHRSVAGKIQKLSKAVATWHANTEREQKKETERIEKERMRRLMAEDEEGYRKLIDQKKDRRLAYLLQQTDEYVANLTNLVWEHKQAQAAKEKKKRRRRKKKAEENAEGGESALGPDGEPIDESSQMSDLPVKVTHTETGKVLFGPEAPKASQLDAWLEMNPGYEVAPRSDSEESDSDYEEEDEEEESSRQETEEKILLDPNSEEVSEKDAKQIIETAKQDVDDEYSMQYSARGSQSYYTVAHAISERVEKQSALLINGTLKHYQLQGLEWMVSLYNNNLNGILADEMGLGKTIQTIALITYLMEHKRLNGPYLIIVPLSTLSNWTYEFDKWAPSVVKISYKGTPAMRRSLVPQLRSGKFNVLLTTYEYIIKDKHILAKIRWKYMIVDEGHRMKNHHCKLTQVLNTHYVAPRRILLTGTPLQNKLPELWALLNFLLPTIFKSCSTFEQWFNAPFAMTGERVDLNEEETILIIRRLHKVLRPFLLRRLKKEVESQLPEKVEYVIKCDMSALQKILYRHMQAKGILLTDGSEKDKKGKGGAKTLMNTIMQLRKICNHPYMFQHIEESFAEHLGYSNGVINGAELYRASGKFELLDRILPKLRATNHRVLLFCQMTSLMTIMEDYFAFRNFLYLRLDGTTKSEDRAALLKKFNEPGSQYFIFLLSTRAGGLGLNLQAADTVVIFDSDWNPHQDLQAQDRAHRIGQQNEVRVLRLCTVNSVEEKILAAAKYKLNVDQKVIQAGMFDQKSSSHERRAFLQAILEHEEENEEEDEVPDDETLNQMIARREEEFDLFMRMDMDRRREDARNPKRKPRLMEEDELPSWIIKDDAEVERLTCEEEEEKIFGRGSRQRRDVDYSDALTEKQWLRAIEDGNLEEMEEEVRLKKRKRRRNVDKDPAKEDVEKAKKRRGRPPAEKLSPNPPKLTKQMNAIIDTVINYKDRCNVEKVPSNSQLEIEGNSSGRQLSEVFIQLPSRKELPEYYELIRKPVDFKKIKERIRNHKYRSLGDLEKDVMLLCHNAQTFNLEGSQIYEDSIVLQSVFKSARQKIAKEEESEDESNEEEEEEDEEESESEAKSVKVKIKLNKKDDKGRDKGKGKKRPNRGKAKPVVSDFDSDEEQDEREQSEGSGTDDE

The DC50 is the concentration at which degradation of the target reaches its halfway point. Broadly, the Dmax is the greatest extent of degradation seen. Turning to `O=C1CCC(N2C(=O)c3ccc(N4CCC(N5CCN6c7cc(-c8ccccc8O)nnc7NC[C@H]6C5)C4)cc3C2=O)C(=O)N1` (stereo partly drawn) [Example 156, 2-(2,6-dioxopiperidin-3-yl)-5-(3-((S)-2-(2-hydroxyphenyl)-5,6,6a,7,9,10-hexahydro-8H-pyrazino[1′,2′:4,5]pyrazino[2,3-c]pyridazin-8-yl)pyrrolidin-1-yl)isoindoline-1,3-dione], the DC50 on SMARCA4-HiBiT and at SMARCA2-HiBiT was 10 to 100 nM throughout. Also, the values for the Dmax at SMARCA4-HiBiT and on SMARCA2-HiBiT were 50 to 75% and 75 to 85%, respectively.

Take `C[C@H]1CN2c3cc(-c4ccccc4O)nnc3NC[C@H]2CN1C[C@H]1[C@@H]2CN(CC3CCN(c4ccc5c(c4)CN(C4CCC(=O)NC4=O)C5=O)CC3)C[C@@H]21` (stereo partly drawn) [Example 57, 3-(5-(4-(((1R,5S,6r)-6-(((6aS,9S)-2-(2-hydroxyphenyl)-9-methyl-5,6,6a,7,9,10-hexahydro-8H-pyrazino[1′,2′:4,5]pyrazino[2,3-c]pyridazin-8-yl)methyl)-3-azabicyclo[3.1.0]hexan-3-yl)methyl)piperidin-1-yl)-1-oxoisoindolin-2-yl)piperidine-2,6-dione]: at SMARCA4-HiBiT, the DC50 was below 10 nM and the Dmax is at most 50%. Also, at SMARCA2-HiBiT, the DC50 is below 10 nM and the greatest degradation seen (Dmax) was in the range of 50 to 75%.

Regarding `O=C1CCC(N2C(=O)c3ccc(N4CCC(CN5CCC(CN6CCN7c8cc(-c9ccccc9O)nnc8NC[C@H]7C6)C5)CC4)cc3C2=O)C(=O)N1` (stereo partly drawn) [Example 33, 2-(2,6-dioxopiperidin-3-yl)-5-(4-((3-(((S)-2-(2-hydroxyphenyl)-5,6,6a,7,9,10-hexahydro-8H-pyrazino[1′,2′:4,5]pyrazino[2,3-c]pyridazin-8-yl)methyl)pyrrolidin-1-yl)methyl)piperidin-1-yl)isoindoline-1,3-dione], on SMARCA4-HiBiT, the DC50 was below 10 nM and the Dmax fell in the range of 75 to 85%. In addition, at SMARCA2-HiBiT, the half-maximal degradation concentration (DC50) was below 10 nM and the maximal degradation (Dmax) was above 85%.

For `O=C1CCC(N2Cc3cc(N4CCC(CN5CCC(CN6CCN7c8cc(-c9ccccc9O)nnc8NC[C@H]7C6)CC5)CC4)c(F)cc3C2=O)C(=O)N1` (stereo partly drawn) [Example 234, 3-(6-fluoro-5-(4-((4-(((S)-2-(2-hydroxyphenyl)-5,6,6a,7,9,1O-hexahydro-8H-pyrazino[1′,2′:4,5]pyrazino[2,3-c]pyridazin-8-yl)methyl)piperidin-1-yl)methyl)piperidin-1-yl)-1-oxoisoindolin-2-yl)piperidine-2,6-dione], the DC50 on SMARCA4-HiBiT and on SMARCA2-HiBiT was below 10 nM in each case. For the same compound, the Dmax on SMARCA4-HiBiT and on SMARCA2-HiBiT was above 85% each time.

On to `C[C@@H]1C[C@H](CN2CCC(CN3CCN4c5cc(-c6ccccc6O)nnc5NC[C@H]4C3)CC2)CCN1c1cc2c(cc1F)C(=O)N(C1CCC(=O)NC1=O)C2=O` (stereo partly drawn) [Example 174, 2-(2,6-dioxopiperidin-3-yl)-5-fluoro-6-[(2R,4R)-4-[[4-[[(10S)-4-(2-hydroxyphenyl)-1,5,6,8,12-pentazatricyclo[8.4.0.02,7]tetradeca-2,4,6-trien-12-yl]methyl]piperidin-1-yl]methyl]-2-methylpiperidin-1-yl] isoindole-1,3-dione], for which, at SMARCA4-HiBiT, the DC50 is below 10 nM and the Dmax was above 85%. For the same compound, at SMARCA2-HiBiT, the DC50 was below 10 nM and the Dmax was above 85%.

With `O=C1CCC(N2C(=O)c3ccc(N4CCC(CN5CCC(NC6CCN7c8cc(-c9ccccc9O)nnc8NCC7C6)CC5)CC4)cc3C2=O)C(=O)N1` (centres unmarked) [Example 253, 2-(2,6-dioxopiperidin-3-yl)-5-(4-((4-((2-(2-hydroxyphenyl)-6,6a,7,8,9,10-hexahydro-5H-pyrido[1′,2′:4,5]pyrazino[2,3-c]pyridazin-8-yl)amino)piperidin-1-yl)methyl)piperidin-1-yl) isoindoline-1,3-dione], the results for the DC50 on SMARCA4-HiBiT and at SMARCA2-HiBiT were 10 to 100 nM and below 10 nM, respectively. Besides, the Dmax at SMARCA4-HiBiT and at SMARCA2-HiBiT was 50 to 75% throughout.

`C[C@@H]1CN(CC2CCN(c3ccc4c(c3)C(=O)N(C3CCC(=O)NC3=O)C4=O)CC2)CCN1C(=O)N1CCN2c3cc(-c4ccccc4O)nnc3NC[C@H]2C1` (stereo partly drawn) [Example 115, 2-(2,6-dioxopiperidin-3-yl)-5-(4-(((R)-4-((S)-2-(2-hydroxyphenyl)-6,6a,7,8,9,10-hexahydro-5H-pyrazino[1′,2′:4,5]pyrazino[2,3-c]pyridazine-8-carbonyl)-3-methyl-piperazin-1-yl)methyl)piperidin-1-yl)isoindoline-1,3-dione]: at SMARCA4-HiBiT, the DC50 is below 10 nM and the Dmax lay in the range of 50 to 75%. Moreover, at SMARCA2-HiBiT, the DC50 is below 10 nM and the Dmax fell in the range of 50 to 75%.

Consider `O=C1CCC(N2Cc3cc(C4CCN(C5CCCN(CCCN6CCN7c8cc(-c9ccccc9O)nnc8NC[C@H]7C6)C5)CC4)ccc3C2=O)C(=O)N1` (stereo partly drawn) [Example 210, 3-(5-(1′-(3-((S)-2-(2-hydroxyphenyl)-5,6,6a,7,9,10-hexahydro-8H-pyrazino[1′,2′:4,5]pyrazino[2,3-c]pyridazin-8-yl)propyl)-[1,3′-bipiperidin]-4-yl)-1-oxoisoindolin-2-yl)piperidine-2,6-dione], for which, on SMARCA4-HiBiT, the DC50 is below 10 nM and the Dmax was in the range of 75 to 85%. For the same compound, on SMARCA2-HiBiT, the DC50 is below 10 nM and the Dmax is above 85%.

For the compound `O=C1CCC(NC(=O)c2ccc(N3CCC(CN4CCC(N5CCN6c7cc(-c8ccccc8O)nnc7NC[C@H]6C5)CC4)CC3)cn2)C(=O)N1` (stereo partly drawn) [Example 24, N-(2,6-dioxopiperidin-3-yl)-5-(4-((4-((S)-2-(2-hydroxyphenyl)-5,6,6a,7,9,10-hexahydro-8H-pyrazino[1′,2′:4,5]pyrazino[2,3-c]pyridazin-8-yl)piperidin-1-yl)methyl)piperidin-1-yl)picolinamide], on SMARCA4-HiBiT, the DC50 was below 10 nM and the Dmax is 75 to 85%. On SMARCA2-HiBiT, the half-maximal degradation concentration (DC50) is below 10 nM and the Dmax was above 85%.

For the compound `O=C1CCC(N2Cc3ccc(N4CC[C@H](CN5C[C@@H]6[C@H](C5)[C@H]6CN5CCN6c7cc(-c8ccccc8O)nnc7NC[C@H]6C5)[C@@H](F)C4)cc3C2=O)C(=O)N1` (stereo partly drawn) [Example 203, 3-(6-((3R,4R)-3-fluoro-4-(((1R,5S,6R)-6-(((S)-2-(2-hydroxyphenyl)-5,6,6a,7,9,10-hexahydro-8H-pyrazino[1′,2′:4,5]pyrazino[2,3-c]pyridazin-8-yl)methyl)-3-azabicyclo[3.1.0]hexan-3-yl)methyl)piperidin-1-yl)-1-oxoisoindolin-2-yl)piperidine-2,6-dione], on SMARCA4-HiBiT, the DC50 is below 10 nM and the Dmax was above 85%. For the same compound, at SMARCA2-HiBiT, the DC50 is below 10 nM and the Dmax is above 85%.

`CC1CN(CC2CCN(c3ccc4c(c3)C(=O)N(C3CCC(=O)NC3=O)C4)CC2)CC(C)N1C(=O)N1CCN2c3cc(-c4ccccc4O)nnc3NC[C@H]2C1` (stereo partly drawn) [Example 266, 3-(6-(4-((4-((S)-2-(2-hydroxyphenyl)-6,6a,7,8,9,10-hexahydro-5H-pyrazino[1′,2′:4,5]pyrazino[2,3-c]pyridazine-8-carbonyl)-3,5-dimethylpiperazin-1-yl)methyl)piperidin-1-yl)-1-oxoisoindolin-2-yl)piperidine-2,6-dione]: on SMARCA4-HiBiT, the 50% degradation concentration (DC50) is below 10 nM and the Dmax is above 85%. At SMARCA2-HiBiT, the DC50 is below 10 nM and the Dmax was above 85%.
